± gives the expanded uncertainty stated by the source.
Conditions: Liquid; for viscosity / mass density: 101.33 kPa; for viscosity: Capillary tube (Ostwald / Ubbelohde) method; for mass density: Pycnometric method; for vapor or sublimation pressure: Ebulliometric method (Recirculating still)

CCCCCCCCCCCCCCCCCC(=O)OCC(CC)CCCC (stereo unspecified) [2-ethylhexyl stearate]
Conditions | mass density [kg/m3] | vapor or sublimation pressure [kPa] | viscosity [mPa·s]
298.15 K | 855.4 ± 0.9 | – | 15.04 ± 0.61
303.15 K | 851.4 ± 0.9 | – | 12.55 ± 0.51
308.15 K | 847.9 ± 0.9 | – | 10.62 ± 0.43
313.15 K | 844.9 ± 0.9 | – | 9.06 ± 0.37
318.15 K | 841.1 ± 0.9 | – | 7.84 ± 0.32
323.15 K | 837.7 ± 0.9 | – | 6.81 ± 0.28
328.15 K | 834.4 ± 0.9 | – | 6.04 ± 0.25
333.15 K | 831.1 ± 0.9 | – | 5.34 ± 0.22
338.15 K | 827.8 ± 0.9 | – | 4.79 ± 0.19
343.15 K | 824.5 ± 0.9 | – | 4.36 ± 0.18
348.15 K | 821.1 ± 0.9 | – | 3.92 ± 0.16
353.15 K | 817.2 ± 0.9 | – | 3.58 ± 0.15
358.15 K | 814.2 ± 0.9 | – | 3.27 ± 0.13
363.15 K | 811.2 ± 0.9 | – | 3.02 ± 0.12
368.15 K | 808 ± 0.9 | – | 2.8 ± 0.11
477.05 K | – | 0.213 ± 0.029 | –
479.65 K | – | 0.253 ± 0.029 | –
482.25 K | – | 0.28 ± 0.029 | –
483.45 K | – | 0.307 ± 0.029 | –
485.25 K | – | 0.333 ± 0.029 | –
487.55 K | – | 0.373 ± 0.029 | –
488.85 K | – | 0.4 ± 0.029 | –
491.25 K | – | 0.44 ± 0.029 | –
493.25 K | – | 0.493 ± 0.029 | –
495.25 K | – | 0.547 ± 0.029 | –
496.25 K | – | 0.573 ± 0.029 | –
498.05 K | – | 0.613 ± 0.029 | –

CCCCCCCCCCCCCCCC(=O)OCC(CC)CCCC (stereo unspecified) [2-ethylhexyl palmitate]
Conditions | mass density [kg/m3] | vapor or sublimation pressure [kPa] | viscosity [mPa·s]
298.15 K | 855.1 ± 0.9 | – | 11.78 ± 0.48
303.15 K | 851 ± 0.9 | – | 10.01 ± 0.41
308.15 K | 847.9 ± 0.9 | – | 8.28 ± 0.34
313.15 K | 844.5 ± 0.9 | – | 7.16 ± 0.29
318.15 K | 840.9 ± 0.9 | – | 6.26 ± 0.25
323.15 K | 837.4 ± 0.9 | – | 5.64 ± 0.23
328.15 K | 834 ± 0.9 | – | 4.94 ± 0.2
333.15 K | 830.3 ± 0.9 | – | 4.41 ± 0.18
338.15 K | 826.7 ± 0.9 | – | 3.94 ± 0.16
343.15 K | 823.3 ± 0.9 | – | 3.55 ± 0.14
348.15 K | 820.1 ± 0.9 | – | 3.24 ± 0.13
353.15 K | 816.8 ± 0.9 | – | 2.94 ± 0.12
358.15 K | 813.2 ± 0.9 | – | 2.71 ± 0.11
363.15 K | 810 ± 0.9 | – | 2.49 ± 0.1
368.15 K | 806.9 ± 0.9 | – | 2.29 ± 0.09
476.95 K | – | 0.307 ± 0.029 | –
479.35 K | – | 0.333 ± 0.029 | –
482.35 K | – | 0.387 ± 0.029 | –
484.95 K | – | 0.427 ± 0.029 | –
488.05 K | – | 0.493 ± 0.029 | –
490.35 K | – | 0.547 ± 0.029 | –
491.45 K | – | 0.573 ± 0.029 | –
493.85 K | – | 0.627 ± 0.029 | –
496.05 K | – | 0.68 ± 0.029 | –
497.35 K | – | 0.733 ± 0.029 | –
499.35 K | – | 0.8 ± 0.029 | –
500.85 K | – | 0.853 ± 0.029 | –

CCCCCCCCCCCCCCCC(=O)OC [methyl hexadecanoate]
Conditions | vapor or sublimation pressure [kPa]
419.15 K | 0.213 ± 0.029
423.15 K | 0.279 ± 0.029
425.25 K | 0.306 ± 0.029
428.35 K | 0.346 ± 0.029
430.75 K | 0.399 ± 0.029
432.25 K | 0.425 ± 0.029
433.35 K | 0.452 ± 0.029
436.25 K | 0.532 ± 0.029
438.45 K | 0.585 ± 0.029
440.15 K | 0.624 ± 0.029
442.35 K | 0.705 ± 0.029
444.15 K | 0.771 ± 0.029
